Values quoted from earlier work, collected in US20180214453A1, “RIVAROXABAN PHARMACEUTICAL COMPOSITIONS” (INTERQUIM, S.A., priority 2015, published 2018).

Legend:
[1] = according to WO05060940 A2, practically insoluble
[2] = CHMP assessment report for Xarelto, slightly soluble

**Q.** Which results are given for `O=C(NC[C@H]1CN(c2ccc(N3CCOCC3=O)cc2)C(=O)O1)c1ccc(Cl)s1` [Rivaroxaban, 5-chloro-N-({(5S)-2-oxo-3-[4-(3-oxomorpholin-4-yl)phenyl]-1,3-oxazolidin-5-yl}methyl)thiophene-2-carboxamide]?
**A.** solubility in water [1]: about 7 mg/L; solubility in organic solvents [2]: 1.0 to 10.0 g/L
